Source: US20240139214A1, “AGENT FOR SUPPRESSING IL-31 PRODUCTION AND PHARMACEUTICAL COMPOSITION CONTAINING THE SAME” (KYUSHU UNIVERSITY, NATIONAL UNIVERSITY CORPORATION, priority 2021, published 2024)

Each compound was assayed on mouse IL-31 gene (assay: IL-31 production inhibitory action: IL-31 gene expression by real-time PCR in antigen-stimulated CD4+ T cells from Dock8−/− AND Tg mice). Settings: relative to compound 1.
Type: cell-based

| SMILES | IL-31 production inhibitory action (in words, discussion of Table 1) |
| --- | --- |
| CC(C)(C)c1ccc(/C=N/Nc2ccc(C(=O)O)cc2)cc1 [Compound 2, 4-(2-(4-(tert-Butyl)benzylidene)hydrazinyl)benzoic Acid] | maintained |
| CN(C)c1ccc(/C=N/Nc2ccc(C(=O)O)cc2)cc1 [Compound 3, 4-(2-(4-(Dimethylamino)benzylidene)hydrazinyl)benzoic Acid] | maintained |
| CN(C)c1ccc(/C=N/Nc2ccc(C(=O)O)cc2)c(O)c1 [Negative control compound 2, 4-(2-(4-(Dimethylamino)-2-hydroxybenzylidene)hydrazineyl)benzoic Acid, reference compound] | tended to notably decrease |
| CN(CC(O)CO)c1ccc(/C=N/Nc2ccc(C(=O)O)cc2)cc1 (centres unmarked) [Negative control compound 3, 4-(2-(4-((2,3-Dihydroxypropyl)(methyl)amino)benzylidene)hydrazineyl)benzoic Acid, reference compound] | tended to notably decrease |
| CC(C)c1ccc(/C=N/Nc2cccc(C(=O)O)c2)cc1 [Negative control compound 4, 3-(2-(4-Isopropylbenzylidene)hydrazineyl)benzoic Acid, reference compound] | completely lost |
| CC(C)c1ccc(/C=N/Nc2ccccc2C(=O)O)cc1 [Negative control compound 5, 2-(2-(4-Isopropylbenzylidene)hydrazineyl)benzoic Acid, reference compound] | completely lost |
| CC(C)c1ccc(/C=N/Nc2ccccc2)cc1 [Negative control compound 6, 1-(4-Isopropylbenzylidene)-2-phenylhydrazine, reference compound] | completely lost |
| O=C(O)c1ccc(N/N=C/C2CCCCC2)cc1 [Negative control compound 7, 4-(2-(Cyclohexylmethylene)hydrazinyl)benzoic Acid, reference compound] | completely lost |
